logP and logD data for 67 molecules are collected here from the SangsterLogP compilation.

Broadly, the logP is the decadic logarithm of the partition coefficient of the neutral form, usually between octanol and water. High values mean higher lipophilicity, low ones lower lipophilicity. `c1ccc(P(c2ccccc2)c2ccccc2)cc1`: the logP turned out to be 5.69. `CCN(C(=O)SCc1ccccc1)C(C)C(C)C` (configuration not stated): the logP turned out to be 4.6. In turn, `ClC(Cl)C(Cl)(Cl)Cl` displayed a log partition coefficient (logP) of 3.22. Still for that read-out and setting: the same measure for `Cc1ccc(/C=N/O)cc1`: 2.4; for `O=[N+]([O-])c1ccco1`: 0.66; for `Cn1cccc1/C=N/NC(=S)Nc1ccccc1`: 3.64. For orientation: logD means the decadic logarithm of the distribution of all forms, ionised or not, between an organic phase and buffer at a given pH. Read a high logD as higher lipophilicity. Take `Cn1c([N+](=O)[O-])cnc1-c1ccc(N)cc1`: the logD (pH 7.4) was 1.06.

`OCCCCl` returned a logP of 0.5. The molecule `CCC(C)OC(C)=O` (configuration not stated) yielded a lipophilicity (logP) of 1.72. The same measure, in the same setting: next, `CC1(C)N=C(N)N=C(N)N1c1cccc(OCCOc2ccccc2)c1`: -0.84; `NC(=O)Nc1cccc2cccnc12`: 1.62. Consider `Cn1c(N)nc2c3nccnc3ccc21`, for which the log distribution coefficient (logD) (pH 7.4) was found to be 1.01. In the case of `O=C(O)c1c(Cl)cccc1Cl`, where the note is “pH 1.0”, the logD is 2.23. With `CC(C)Cc1cc([N+](=O)[O-])cc(C(C)C)c1O`, the log partition coefficient (logP) turned out to be 4.19. Regarding `OCCCO`, the log partition coefficient (logP) was -1.04.

As for `CC(=O)Nc1nccs1`, the logP worked out at 0.76. As to `ICCCI`, the logP worked out at 3.02.

Consider `CNCCO`, for which, under “pH 13.0”, the log distribution coefficient (logD) was -0.94. With `COC(=O)Nc1cccc(OC(=O)Nc2cccc(C)c2)c1`, the logD (pH 3.9) came out at 3.59. Regarding `CC(C(=O)O)c1ccc(N2C(=O)C3C4C=CCC3(C4)C2=O)cc1` (configuration not stated), the logP is 2.31. `COC(=O)C(C)(C)C` returned a logP of 1.83. For the molecule `C1=C(c2ccccc2)CCCC1`, the logP came out at 4.53. Turning to `NCCCN`, the log distribution coefficient (logD) (pH 13.0) is -1.43. `C[C@]12CCC(=O)C=C1CC[C@@H]1[C@@H]2CC[C@@]2(C)[C@H]1CC[C@]2(O)[C@H](O)CO` displayed a log partition coefficient (logP) of 2.

For `CC(=O)OC[C@H]1O[C@@H](n2ncc(=O)[nH]c2=O)[C@H](OC(C)=O)[C@@H]1OC(C)=O`, the logP was -0.2.

`COC1=C(N2CC2)C(=O)C(OC)=C(N2CC2)C1=O` came in with a logP of 0.17.

`CN(C(F)(F)F)S(=O)(=O)CCCn1ccnc1C=NO`: under “pH 7.4”, the logD turned out to be 1.77. For the molecule `c1csc(C23CCCN2CCO3)c1` (configuration not stated), the logD (pH 7.4) was determined as 1.05. Turning to `CC(C)C(C)OCc1cn(C)c(C=NO)n1` (configuration not stated), the lipophilicity (logP) was determined as 2.53.

Molecule `COc1cccc2c1C(=O)c1c(O)c3c(c(O)c1C2=O)CC(O)(C(=O)CO)CC3OC1CC(O)C(O)C(C)O1` (configuration not stated) gave a logD (pH 7.0) of 1.75. The molecule `CCc1cccc(CC)c1NC(=O)OC` yielded a lipophilicity (logP) of 1.99. Turning to `CN(C)c1ccc2c(c1)C(c1ccccc1Cl)=NCC(=O)N2C`, for the setting “pH 7.4”, the pH-dependent lipophilicity (logD) was determined as 2.72. Consider `CCCSP(=O)(OCC)Oc1cnn(-c2ccc(Cl)cc2)c1` (configuration not stated), for which the lipophilicity (logP) is 3.77. The molecule `Cc1cc(=O)[nH]c(=O)[nH]1` returned a log distribution coefficient (logD) (pH 7.4) of -0.77. In the case of `Cn1c(N)nc2cc(Cl)ccc21`, the lipophilicity (logP) turned out to be 2.09.

Turning to `CN(C)C(=O)SCCCCOc1ccccc1`, the lipophilicity (logP) is 3.28. Turning to `CC(C)(C)C1=Nc2ccc(Cl)cc2S(=O)(=O)N1`, the lipophilicity (logP) was found to be 2.4. `O=C1C=CCO1` yielded a logP of -0.6.

Turning to `N#Cc1sc2c(=O)c3ccccc3c(=O)c=2sc1C#N`, the logP was found to be 2.84. Consider `Cc1ccc(C=Cc2ncc([N+](=O)[O-])n2CO)cc1`, for which the logD (pH 7.4) is 2.25. Turning to `CN(C)C1=CC(=O)C(N(C)C)=CC1=O`, the logP came out at 1.03. Same read-out and setting: next, `N#CNc1ccccc1`: 1.87. With `Cc1ccc(C(=O)COc2c(C(=O)c3ccc(Cl)c(C)c3Cl)c(C)nn2C)cc1`, the lipophilicity (logP) came to 4.69.

Molecule `N#C/C=C/C#N` showed a logP of -0.25.

`Nc1ccc(Sc2ccc(N)cc2)cc1`: the log distribution coefficient (logD) (pH 7.4) was found to be 2.18. The molecule `CN(C)c1ccc2c(c1)C(=O)N(O)C2=O` had a logP of 1.27.

Turning to `CCC(C(N)=O)(C(N)=O)c1ccccc1`, the log partition coefficient (logP) was 0.13. Regarding `Cc1ccnc(=O)[nH]1`, the logP was -1.45. The same measure, in the same setting: next, `CCOC(=O)CCCOc1ccc(Cl)cc1C`: 4.26; `C=CCOCC1CO1` (configuration not stated): 0.46. For the molecule `Cc1ccccc1CO`, the logP amounted to 1.58.

Consider `C#CCN`, for which the pH-dependent lipophilicity (logD) (pH 13.0) is -0.43. For `BrC(Br)(Br)Br`, the log partition coefficient (logP) was 3.42.

In turn, `CCCCOC` displayed a logP of 1.66. Take `CC(=O)Nc1ccc(S(N)(=O)=O)cc1`: the logD (pH 2.1) is 0. As for `C=CCn1cccn1`, the logP turned out to be 0.35. `CCCCc1c(C)[nH]c(N(C)C)nc1=O` showed a lipophilicity (logP) of 1.9. Same read-out and setting: the same measure for `O=[N+]([O-])c1cccc(SSc2cccc([N+](=O)[O-])c2)c1`: 4.06.

Where the note is “pH 2.1”, `CC(=O)c1cccc(S(N)(=O)=O)c1` came in with a pH-dependent lipophilicity (logD) of 0.25.

Regarding `CCNC(=O)c1ccco1`, the logP was 0.61.

`C[C@@H]1CCC[C@H](C)N1`: the logD (pH 13.0) stood at 1.53. In turn, `CCCn1cnc2c(NC(C)=O)ncnc21` returned a logP of 0.09. For the setting “pH 2.1”, `CCCCCCOc1ccc(S(N)(=O)=O)cc1[N+](=O)[O-]` yielded a pH-dependent lipophilicity (logD) of 3.03. In the case of `CC(=O)Oc1cccc2cccnc12`, the logD (pH 7.4) came out at 2.03. In turn, `CN(C)O` came in with a logP of -1.15.

With `O=C1C=C(N2CCCC2)C(=O)c2ccccc21`, the logP turned out to be 2.89.

Molecule `CCCCCn1cnc2c(NC(C)=O)ncnc21` gave a logP of 0.98.
